In US9315505B2, “Heterocyclic compounds and uses thereof” (INTELLIKINE LLC, priority 2009, dated 2016):
Like-named read-outs stand apart in the source and are kept apart here.

Columns and labels:
PI3K δ = molecular target: T1, PI3K δ (Homo sapiens, UniProt O00329); assay: In vitro IC50, PI3K δ (p110δ/p85α inhibition assay); type: biochemical
T1 construct: purchased Upstate
Method: (§1) IC50 values are measured using either a standard TLC assay for lipid kinase activity (described below) or a high-throughput membrane capture assay. Kinase reactions are performed by preparing a reaction mixture containing kinase, inhibitor (2% DMSO final concentration), buffer (25 mM HEPES, pH 7.4, 10 mM MgCl2), and freshly sonicated phosphatidylinositol (100 μg/ml). Reactions are initiated by the addition of ATP containing 10 μCi of γ-32P-ATP to a final concentration 10 or 100 μM and allowed to proceed for 5 minutes at room temperature. For TLC analysis, reactions are then terminated by the addition of 105 μl 1N HCl followed by 160 μl CHCl3:MeOH (1:1). The biphasic mixture is vortexed, briefly centrifuged, and the organic phase is transferred to a new tube using a gel loading pipette tip precoated with CHCl3. This extract is spotted on TLC plates and developed for 3-4 hours in a 65:35 solution of n-propanol:1M acetic acid. The TLC plates are then dried, exposed to a phosphorimager screen (Storm, Amersham), and quantitated.
(§2) Other commercial kits or systems for assaying PI3-K activities are available. The commercially available kits or systems can be used to screen for inhibitors and/or agonists of PI3-Ks including but not limited to PI 3-Kinase α, β, δ, and γ. An exemplary system is PI 3-Kinase (human) HTRF™ Assay from Upstate. […] Briefly, the assay is a time resolved FRET assay that indirectly measures PIP3 product formed by the activity of a PI3-K. The kinase reaction is performed in a microtitre plate (e.g., a 384 well microtitre plate). The total reaction volume is approximately 20 ul per well. In the first step, each well receives 2 ul of test compound in 20% dimethylsulphoxide resulting in a 2% DMSO final concentration. Next, approximately 14.5 ul of a kinase/PIP2 mixture (diluted in 1× reaction buffer) is added per well for a final concentration of 0.25-0.3 ug/ml kinase and 10 uM PIP2. The plate is sealed and incubated for 15 minutes at room temperature. To start the reaction, 3.5 ul of ATP (diluted in 1× reaction buffer) is added per well for a final concentration of 10 uM ATP. The plate is sealed and incubated for 1 hour at room temperature. The reaction is stopped by adding 5 ul of Stop Solution per well and then 5 ul of Detection Mix is added per well. The plate is sealed, incubated for 1 hour at room temperature, and then read on an appropriate plate reader. Data is analyzed and IC50s are generated using GraphPad Prism 5.

Balb/c splenic B cells = assay: B cell activation and proliferation assay (Alamar Blue); type: cell-based; details: Mus musculus
Method: The ability of one or more subject compounds to inhibit B cell activation and proliferation is determined according to standard procedures known in the art. For example, an in vitro cellular proliferation assay is established that measures the metabolic activity of live cells. The assay is performed in a 96 well microtiter plate using Alamar Blue reduction. Balb/c splenic B cells are purified over a Ficoll-Paque™ PLUS gradient followed by magnetic cell separation using a MACS B cell Isolation Kit (Miletenyi). Cells are plated in 90 ul at 50,000 cells/well in B Cell Media (RPMI+10% FBS+Penn/Strep+50 uM bME+5 mM HEPES). A compound disclosed herein is diluted in B Cell Media and added in a 10 ul volume. Plates are incubated for 30 min at 37 C and 5% CO2 (0.2% DMSO final concentration). A 50 ul B cell stimulation cocktail is then added containing either 10 ug/ml LPS or 5 ug/ml F(ab′)2 Donkey anti-mouse IgM plus 2 ng/ml recombinant mouse IL4 in B Cell Media. Plates are incubated for 72 hours at 37° C. and 5% CO2. A volume of 15 uL of Alamar Blue reagent is added to each well and plates are incubated for 5 hours at 37 C and 5% CO2. Alamar Blue fluoresce is read at 560Ex/590Em, and IC50 or EC50 values are calculated using GraphPad Prism 5.

PI3K γ = molecular target: T2, PI3K γ (Homo sapiens, UniProt P48736); assay: In vitro IC50, PI3K γ (p110γ inhibition assay); type: biochemical; details: in vitro kinase assay
T2 construct: purchased Sigma
Method: as §1, with “Class I PI3-Ks can be either purchased (p110α/p85α, p110β/p85α, p110δ/p85α from Upstate, and p110γ from Sigma) or expressed as previously described (Knight et al., 2004). IC50” for “IC50”, “quantitated. For each compound, kinase activity is measured at 10-12 inhibitor concentrations representing two-fold dilutions from the highest concentration tested (typically, 200 μM).” for “quantitated.”
as §2

PI3K α = molecular target: T3, PI3K α (Homo sapiens, UniProt P42336); assay: In vitro IC50, PI3K α (p110α/p85α inhibition assay); type: biochemical
T3 construct: purchased Upstate
Method: as §1, §2

[1] = in vitro kinase assay, read-out: IC50(nM) PI3K δ
[2] = read-out: B cell proliferation EC50
[3] = in vitro kinase assay, read-out: IC50(nM) PI3K α

T1 sequence (O00329 whole entry): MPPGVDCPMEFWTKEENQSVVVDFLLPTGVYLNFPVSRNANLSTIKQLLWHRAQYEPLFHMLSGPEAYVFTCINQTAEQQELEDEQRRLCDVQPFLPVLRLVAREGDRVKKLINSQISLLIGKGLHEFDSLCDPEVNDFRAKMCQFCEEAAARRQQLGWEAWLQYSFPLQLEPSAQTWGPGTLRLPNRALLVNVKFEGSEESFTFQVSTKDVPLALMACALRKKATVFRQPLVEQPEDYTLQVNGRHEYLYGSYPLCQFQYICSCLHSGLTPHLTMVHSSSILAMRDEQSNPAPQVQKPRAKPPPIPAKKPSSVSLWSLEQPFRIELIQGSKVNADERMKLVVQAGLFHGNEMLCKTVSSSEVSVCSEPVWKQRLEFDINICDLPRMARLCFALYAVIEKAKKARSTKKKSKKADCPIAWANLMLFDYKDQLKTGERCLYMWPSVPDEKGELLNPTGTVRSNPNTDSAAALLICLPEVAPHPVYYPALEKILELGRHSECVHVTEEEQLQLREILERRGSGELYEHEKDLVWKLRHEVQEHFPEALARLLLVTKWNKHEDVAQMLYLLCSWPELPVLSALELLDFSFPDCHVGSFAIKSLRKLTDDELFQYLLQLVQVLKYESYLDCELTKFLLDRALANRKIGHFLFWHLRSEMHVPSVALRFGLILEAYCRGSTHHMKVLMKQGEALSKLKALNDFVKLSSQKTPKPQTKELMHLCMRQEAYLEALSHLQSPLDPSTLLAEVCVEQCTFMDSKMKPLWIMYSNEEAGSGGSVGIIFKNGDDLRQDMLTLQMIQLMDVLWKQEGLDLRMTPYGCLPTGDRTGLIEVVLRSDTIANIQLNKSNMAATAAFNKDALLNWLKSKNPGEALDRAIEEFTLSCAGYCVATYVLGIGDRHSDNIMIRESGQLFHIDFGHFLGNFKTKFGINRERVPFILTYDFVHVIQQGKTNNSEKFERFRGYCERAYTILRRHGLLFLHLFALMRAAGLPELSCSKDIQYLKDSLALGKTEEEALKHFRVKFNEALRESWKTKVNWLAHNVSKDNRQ
T1 sequence (P27986 whole entry partner): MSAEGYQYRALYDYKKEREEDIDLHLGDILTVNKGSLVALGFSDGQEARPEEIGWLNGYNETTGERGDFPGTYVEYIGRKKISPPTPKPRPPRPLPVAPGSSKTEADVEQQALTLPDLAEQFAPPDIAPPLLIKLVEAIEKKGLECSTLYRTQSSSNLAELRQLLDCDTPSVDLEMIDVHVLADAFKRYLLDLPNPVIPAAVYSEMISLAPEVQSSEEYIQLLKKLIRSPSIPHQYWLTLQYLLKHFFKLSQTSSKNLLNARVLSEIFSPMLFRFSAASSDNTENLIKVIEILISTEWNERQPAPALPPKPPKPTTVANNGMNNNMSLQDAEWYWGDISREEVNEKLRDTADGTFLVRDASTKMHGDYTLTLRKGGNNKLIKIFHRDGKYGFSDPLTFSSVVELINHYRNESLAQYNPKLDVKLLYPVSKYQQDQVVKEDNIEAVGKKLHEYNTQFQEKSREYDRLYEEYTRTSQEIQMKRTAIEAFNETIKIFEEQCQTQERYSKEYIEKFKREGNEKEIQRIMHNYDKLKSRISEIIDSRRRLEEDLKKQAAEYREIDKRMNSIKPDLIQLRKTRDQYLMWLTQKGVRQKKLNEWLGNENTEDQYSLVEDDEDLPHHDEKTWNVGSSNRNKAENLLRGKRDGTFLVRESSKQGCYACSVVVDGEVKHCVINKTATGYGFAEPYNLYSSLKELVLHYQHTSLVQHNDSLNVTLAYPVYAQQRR
T3 sequence (P42336 whole entry): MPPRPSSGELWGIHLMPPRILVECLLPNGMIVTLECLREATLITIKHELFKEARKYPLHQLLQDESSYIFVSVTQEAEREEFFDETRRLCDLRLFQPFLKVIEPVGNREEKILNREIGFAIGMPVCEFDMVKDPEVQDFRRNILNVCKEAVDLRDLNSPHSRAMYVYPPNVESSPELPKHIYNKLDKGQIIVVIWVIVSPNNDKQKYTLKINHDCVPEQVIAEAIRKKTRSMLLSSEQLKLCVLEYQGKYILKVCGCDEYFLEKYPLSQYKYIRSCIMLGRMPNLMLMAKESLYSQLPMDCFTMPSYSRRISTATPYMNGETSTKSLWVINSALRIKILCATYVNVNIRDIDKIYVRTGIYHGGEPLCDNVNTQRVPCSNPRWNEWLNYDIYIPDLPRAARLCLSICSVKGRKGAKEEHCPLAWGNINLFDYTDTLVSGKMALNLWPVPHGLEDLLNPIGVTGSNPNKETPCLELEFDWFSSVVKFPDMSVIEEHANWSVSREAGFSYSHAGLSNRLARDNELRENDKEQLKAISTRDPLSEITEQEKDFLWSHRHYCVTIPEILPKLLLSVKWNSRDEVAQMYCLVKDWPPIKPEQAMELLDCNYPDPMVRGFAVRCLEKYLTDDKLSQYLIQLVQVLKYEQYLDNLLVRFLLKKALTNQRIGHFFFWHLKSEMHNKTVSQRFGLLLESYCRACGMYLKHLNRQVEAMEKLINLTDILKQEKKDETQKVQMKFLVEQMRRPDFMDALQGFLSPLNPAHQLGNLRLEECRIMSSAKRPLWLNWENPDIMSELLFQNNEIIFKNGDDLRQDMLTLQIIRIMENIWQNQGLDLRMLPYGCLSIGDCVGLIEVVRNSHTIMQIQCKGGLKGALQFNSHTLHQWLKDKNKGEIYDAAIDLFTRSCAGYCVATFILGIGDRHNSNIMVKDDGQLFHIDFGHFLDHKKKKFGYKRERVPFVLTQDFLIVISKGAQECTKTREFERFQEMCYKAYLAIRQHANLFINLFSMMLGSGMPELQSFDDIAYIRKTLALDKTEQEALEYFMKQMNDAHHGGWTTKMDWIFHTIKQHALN
T3 sequence (P27986 whole entry partner): as the sequence (P27986 whole entry partner) above
T2 sequence (P48736 whole entry): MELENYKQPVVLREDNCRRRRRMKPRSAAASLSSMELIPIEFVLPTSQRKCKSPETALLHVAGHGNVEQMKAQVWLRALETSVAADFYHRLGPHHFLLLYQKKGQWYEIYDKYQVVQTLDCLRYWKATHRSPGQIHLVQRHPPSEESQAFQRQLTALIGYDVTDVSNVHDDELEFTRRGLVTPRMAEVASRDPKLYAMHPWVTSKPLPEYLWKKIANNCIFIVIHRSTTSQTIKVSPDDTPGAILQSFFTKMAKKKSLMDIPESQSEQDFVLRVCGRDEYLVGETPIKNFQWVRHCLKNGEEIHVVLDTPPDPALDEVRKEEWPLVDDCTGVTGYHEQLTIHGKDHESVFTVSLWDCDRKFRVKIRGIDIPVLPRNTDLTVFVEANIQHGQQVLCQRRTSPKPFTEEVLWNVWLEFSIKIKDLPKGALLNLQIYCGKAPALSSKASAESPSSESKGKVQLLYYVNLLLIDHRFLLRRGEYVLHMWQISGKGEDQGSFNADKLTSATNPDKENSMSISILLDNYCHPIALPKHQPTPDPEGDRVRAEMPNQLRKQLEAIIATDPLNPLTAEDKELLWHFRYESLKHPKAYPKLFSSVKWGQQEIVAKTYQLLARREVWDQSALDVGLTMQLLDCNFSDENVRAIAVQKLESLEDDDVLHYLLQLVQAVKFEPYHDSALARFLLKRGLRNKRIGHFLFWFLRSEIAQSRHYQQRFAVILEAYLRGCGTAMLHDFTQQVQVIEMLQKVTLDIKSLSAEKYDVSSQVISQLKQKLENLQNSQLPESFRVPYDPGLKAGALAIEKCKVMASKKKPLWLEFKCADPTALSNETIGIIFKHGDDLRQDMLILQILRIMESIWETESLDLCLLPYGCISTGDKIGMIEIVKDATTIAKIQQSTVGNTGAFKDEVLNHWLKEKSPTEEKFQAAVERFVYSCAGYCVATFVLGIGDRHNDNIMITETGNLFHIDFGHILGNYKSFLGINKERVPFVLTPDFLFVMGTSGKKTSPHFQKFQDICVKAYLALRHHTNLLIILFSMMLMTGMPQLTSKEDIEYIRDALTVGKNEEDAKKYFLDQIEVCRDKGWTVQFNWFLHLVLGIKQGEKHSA

Row | Compound | IC50 (PI3K δ; [1]) [nM] | EC50 (Balb/c splenic B cells; [2]) [nM] | IC50 (PI3K γ) [nM] | IC50 (PI3K α; [3]) [nM] | IC50 (PI3K δ) [nM] | EC50 (Balb/c splenic B cells; read-out: B cell proliferation EC50 (nM)) [nM] | IC50 (PI3K α) [nM]
1 | C[C@H](Nc1ncnc2[nH]cnc12)c1cc2cccc(Cl)c2c(N2CCCC2)n1 [Compound 63] | < 100 | < 1000 | < 10000 | > 10000 |  |  | 
2 | Cc1cccc2cc(Cn3nc(-c4ccc5oc(N)nc5c4)c4c(N)ncnc43)nc(OC3CCN(C)CC3)c12 [Compound 5] | < 100 | < 100 | < 100 | < 100 |  |  | 
3 | Cc1cccc2cc(C(C)Nc3ncnc4[nH]cnc34)nc(CCN3CCOCC3)c12 (stereo not drawn) [Compound 38] | < 100 | < 100 | < 10000 |  |  |  | 
4 | Cc1cccc2cc([C@H](C)Nc3ncnc4[nH]cnc34)nc(OC3CCN(S(C)(=O)=O)CC3)c12 [Compound 61] | < 1000 | < 1000 | < 10000 | > 10000 |  |  | 
5 | C[C@H](Nc1ncnc2[nH]cnc12)c1cc2cccc(Cl)c2c(N2CCOCC2)n1 [Compound 62] | < 1000 | < 1000 | < 10000 | > 10000 |  |  | 
6 | Cc1cccc2cc(C(C)Nc3ncnc4[nH]cnc34)nc(CCN3CCCC3)c12 (stereo not drawn) [Compound 39] | < 100 | < 100 | > 10000 |  |  |  | 
7 | Cc1cccc2cc(C(C)Nc3ncnc4[nH]cnc34)nc(NCCN3CCOCC3)c12 (stereo not drawn) [Compound 42] | < 100 | < 1000 | > 10000 |  |  |  | 
8 | CC(Nc1ncnc2[nH]cnc12)c1cc2cccc(Cl)c2c(CN2CCN(S(C)(=O)=O)CC2)n1 (stereo not drawn) [Compound 59] | < 1000 | < 1000 | > 10000 | > 10000 |  |  | 
9 | Cc1cccc2cc(Cn3nc(-c4ccc5oc(N)nc5c4)c4c(N)ncnc43)nc(N3CCN(C)CC3)c12 [Compound 17] | < 100 | < 100 | < 100 | < 1000 |  |  | 
10 | Cc1cccc2cc(C(C)Nc3ncnc4[nH]cnc34)nc(CCN3CCN(S(C)(=O)=O)CC3)c12 (stereo not drawn) [Compound 50] | < 100 | < 100 | < 10000 | < 10000 |  |  | 
11 | Cc1cccc2cc(C(C)Nc3ncnc4[nH]cnc34)nc(N3CCOCC3)c12 (stereo not drawn) [Compound 44] | < 100 | < 1000 | < 10000 |  |  |  | 
12 | Cc1cccc2cc(Cn3nc(-c4ccc5oc(N)nc5c4)c4c(N)ncnc43)nc(CCN3CCN(C)CC3)c12 [Compound 25] | < 100 | < 100 | < 1000 | < 1000 |  |  | 
13 | CC(Nc1ncnc2[nH]cnc12)c1cc2ccccc2c(OC2CCN(C(C)C)CC2)n1 (stereo not drawn) [Compound 35] | < 1000 | < 100 | > 10000 | > 10000 |  |  | 
14 | C[C@H](Nc1ncnc2[nH]cnc12)c1cc2cccc(Cl)c2c(OCCN2CCOCC2)n1 [Compound 65] | < 100 | < 100 | < 1000 | < 10000 |  |  | 
15 | Cc1cccc2cc(C(C)Nc3ncnc4[nH]cnc34)nc(OC3CCN(C)CC3)c12 (stereo not drawn) [Compound 15] |  |  | > 10000 |  | < 100 | < 100 | > 10000
16 | Cc1cccc2cc(Cn3nc(-c4cn[nH]c4)c4c(N)ncnc43)nc(N3CCOCC3)c12 [Compound 37] | < 100 | < 100 | < 10000 |  |  |  | 

Row | Compound | IC50 (PI3K δ; [1]) [nM] | EC50 (Balb/c splenic B cells; [2]) [nM] | IC50 (PI3K γ) [nM] | IC50 (PI3K α; [3]) [nM] | IC50 (PI3K δ) [nM] | EC50 (Balb/c splenic B cells; read-out: B cell proliferation EC50 (nM)) [nM] | IC50 (PI3K α) [nM]
17 | C[C@H](Nc1ncnc2[nH]cnc12)c1cc2cccc(Cl)c2c(OC2CCN(S(C)(=O)=O)CC2)n1 [Compound 60] | < 1000 | < 1000 | < 10000 | > 10000 |  |  | 
18 | Cc1cccc2cc(C(C)Nc3ncnc4[nH]cnc34)nc(OCC3CCN(C)CC3)c12 (stereo not drawn) [Compound 45] | < 100 | < 100 | > 10000 |  |  |  | 
19 | C[C@H](Nc1ncnc2[nH]cnc12)c1cc2cccc(Cl)c2c(N2CCN(S(C)(=O)=O)C[C@@H]2C)n1 [Compound 85] | < 100 |  | < 100 | < 1000 |  |  | 
20 | C[C@H](Nc1ncnc2[nH]cnc12)c1nc(N2CCOCC2)c2c(Cl)cccc2n1 [Compound 93] | < 10000 |  | > 10000 | > 10000 |  |  | 
21 | CC(=O)N1CCN(CCc2nc(C(C)Nc3ncnc4[nH]cnc34)cc3cccc(Cl)c23)CC1 (stereo not drawn) [Compound 81] | < 1000 |  | > 10000 | > 10000 |  |  | 
22 | CCN1CCC(COc2nc(C(C)Nc3ncnc4[nH]cnc34)cc3cccc(C)c23)CC1 (stereo not drawn) [Compound 46] | < 100 | < 100 | > 10000 |  |  |  | 
23 | C[C@H](Nc1ncnc2[nH]cnc12)c1cc2cccc(Cl)c2c(-c2cccnc2)n1 [Compound 82] | < 100 |  | < 1000 | > 10000 |  |  | 
24 | CC(=O)N1CCC(Oc2nc(C(C)Nc3ncnc4[nH]cnc34)cc3ccccc23)CC1 (stereo not drawn) [Compound 52] | < 1000 |  | > 10000 | > 10000 |  |  | 
25 | C[C@@H](Nc1ncnc2[nH]cnc12)c1cc2cccc(Cl)c2c(N2CCN(S(C)(=O)=O)CC2)n1 [Compound 83] | > 10000 |  | > 10000 | > 10000 |  |  | 
26 | Cc1cccc2cc(Cn3nc(-c4ccc5oc(N)nc5c4)c4c(N)ncnc43)nc(N3CCOCC3)c12 [Compound 36] | < 100 | < 1000 | < 100 |  |  |  | 
27 | C[C@H](Nc1ncnc2[nH]cnc12)c1cc2cccc(Cl)c2c(OCCN2CCCC2)n1 [Compound 72] | < 100 |  | < 1000 | < 10000 |  |  | 
28 | Cc1cccc2cc(C(C)Nc3ncnc4[nH]cnc34)nc(OC3CCN(C(C)C)CC3)c12 (stereo not drawn) [Compound 21] | < 100 |  | > 10000 | < 10000 |  |  | 
29 | CC(=O)N1CCN(c2nc([C@H](C)Nc3ncnc4[nH]cnc34)nc3cccc(Cl)c23)CC1 [Compound 96] | < 1000 |  | < 1000 | > 10000 |  |  | 
30 | C[C@H](Nc1ncnc2[nH]cnc12)c1cc2cccc(Cl)c2c(N(C)C)n1 [Compound 71] | < 100 |  | < 1000 | < 10000 |  |  | 
31 | C[C@H](Nc1ncnc2[nH]cnc12)c1cc2ccccc2c(N2CCN(S(C)(=O)=O)CC2)n1 [Compound 77] | < 1000 |  | > 10000 | > 10000 |  |  | 
32 | Cc1cccc2cc(C(C)Nc3ncnc4[nH]cnc34)nc(OC3CCNCC3)c12 (stereo not drawn) [Compound 14] | < 1000 |  | > 10000 | > 10000 |  |  | 
